This note sets out measurements from a melting point compilation (Tetko et al.; mined from patent text by program, amines drawn as free bases though some values may be those of a salt).

Molecules are shown by their SMILES. Bounds are passed on as bounds.

As to `c1ccc(-c2csc(-c3cnn4cccnc34)c2)cc1`, the melting point lay within 72 to 72.5 °C.

`O=c1c(CO)cc(-c2ccc3occc3c2)nn1Cc1ccc(F)cc1`: the melting point was 158 to 160 °C. The molecule `O=S(=O)(Cc1ccccc1)On1nnc2ccccc21` returned a melting point of 65 to 67 °C. Under `C=CC(=O)NCCCCCC(=O)O` stands 88 to 90 °C; under `COC(=O)c1cnn(-c2c(Cl)cc(Cl)cc2Cl)c1N`, 179 to 180 °C; under `O=C1C=C(C2CCC(c3ccc(Cl)cc3)CC2)C(=O)c2ccccc21` (centres undefined), 147 to 149 °C. With `CCOC(=O)c1cccc2c(=O)c(C)c(-c3ccc(OC)cc3)oc12` the figure was 137 to 139 °C; with `CN(C(=O)OC(C)(C)C)c1ccc2onc(OCC(CO)NC(=O)OC(C)(C)C)c2c1` (centres undefined), 109 to 112 °C; with `COc1ccc(C(=O)c2sc3ccccc3c2-c2ccccc2)cc1`, 94 to 95 °C. `COC(=O)CCC(CSc1ccc2ccccc2c1)C(=O)O` (centres undefined) showed a melting point of 70 to 71 °C. As to `Cc1c(SCCCSCCO)ccnc1CNc1cnc2ccccc2c1`, the melting point was 125 to 126 °C. Turning to `NC(=O)c1c(N)n(C2CCCC2)c2nc(Nc3ccc(N4CCOCC4)cc3)ncc2c1=O`, the melting point is 265 °C. `CN(C)CCc1c[nH]c2ccc(Br)cc12`: the melting point fell in the range of 82 to 85 °C.

As for `CC(C)(C)C(=O)Oc1cccc2c1C(=O)c1c(OC(=O)C(C)(C)C)cccc1C2C(=O)c1ccccc1`, the melting point stood at 191 °C. With `CC(C)(C)c1ccc(-c2nc3c4[nH]cnc4nc(CP(=O)(O)O)n3n2)cc1` the figure was 270 °C; with `COc1cc(C)nc(NC(=O)NS(=O)(=O)c2ccccc2-c2ccccc2)n1`, 199 to 202 °C. Consider `NS(=O)(=O)c1cccc(NC(=O)c2cnn3c(C4CC4)cc(-c4ccc(C(F)(F)F)cc4)nc23)c1`, for which the melting point is 249 to 250 °C.

As to `O=S(=O)(c1ccc(-n2cccc2)cc1)c1cccc2cnccc12`, the melting point was in the range of 207 to 210 °C.

Consider `CC(C)C(=O)N[C@@H](CSC(=O)C(C)C)C(=O)NCCSC(=O)c1ccccc1`, for which the melting point was 141 to 143 °C. For the molecule `O=C(O)c1ccc2nc3n(c(=O)c2c1)CCC3=Cc1ccccc1`, the melting point fell in the range of 285 to 287 °C. With `COc1ccc(CCOc2cccc(-c3cccc(C(=O)O)c3)c2)cc1OC` the figure was 100 to 102 °C; with `O=C(NCCCCCCCNC(=O)c1ccc2c(c1)OCO2)c1ccc2c(c1)OCO2`, 151 to 152 °C; with `CNN(NC)C(=O)Sc1cccnc1C(=O)OC`, 56 to 58 °C. In turn, `Cc1nn2c(c1Cl)N=NC2CCNC(=O)c1ccccc1C(=O)O` (centres undefined) gave a melting point of 162 to 166 °C. With `O=C(C1Nc2cc(F)ccc2-n2cnc(-c3nc(C4CC4)no3)c21)N1CCOCC1` (centres undefined) the figure was 240 to 242 °C; with `O=C(CCN1CCC(N2Cc3ccccc3C2=O)CC1)c1ccccc1`, 87 to 90 °C. With `Nc1ccc(OCC2CN(c3ccccn3)C(=O)O2)cc1` (centres undefined) the figure was 141 to 143 °C; with `CC1C(=O)Oc2cc(N3CCOCC3)ccc21` (centres undefined), 118 to 121 °C. In the case of `CC(=O)Nc1cnc(N2CCN(CCCC(=O)c3ccc(F)cc3)CC2)cc1NC(C)=O`, the melting point lay within 206 to 209 °C.

As to `Nc1ccc(OCc2ccccn2)nn1`, the melting point fell in the range of 114 to 115 °C. `CCCc1cc2c(cc1CC#N)OCO2`: the melting point lay in the range of 66 to 67 °C. Under `O=C(O)c1cccc(-n2cnc3cc(-c4ccoc4)ccc32)c1` stands 272 to 274 °C. Under `CC(=O)N(C(C)=O)c1ccc(C=Cc2ccc3ccccc3n2)cc1` stands 148 to 150 °C; under `COc1cc(OC)nc(NC(=O)NS(=O)(=O)c2ccccc2CS(=O)(=O)N(C)C)n1`, 172 to 176 °C. With `CCOC(=O)CN1C(=O)c2cccc3cccc(c23)C1=O`, the melting point lay in the range of 160 to 162 °C. Molecule `Cc1cc(C(F)(F)F)nn1CC(=O)N1CCC(c2csc(NC(=O)Cc3c(F)cccc3Cl)n2)CC1` returned a melting point of 249 to 251 °C. Under `Cc1c(Cc2cccc(C(F)(F)F)c2)sc2c(-c3cc(C(=O)O)ccn3)cccc12` stands 271 to 272 °C; under `C=C(C)C(=O)[C@@H]1CCCC[C@H]1C(=O)OC(c1ccccc1)c1ccccc1` (relative stereo), 90 to 95 °C. Under `Nc1ccccc1C=C1c2ccccc2CCc2ccccc21` stands 145 °C; under `COC(=O)c1ccc(OC)c2oc(C)cc12`, 127 to 129 °C.

Regarding `O=C(O)c1cc([N+](=O)[O-])ccc1NCc1ccccc1`, the melting point lay in the range of 238 to 248 °C.

Regarding `C#CC1(OC(C)=O)CCC2C3CCC4=CC(=O)CCC4C3C(C(F)F)CC21C` (centres undefined), the melting point lay within 157 to 180 °C. For the molecule `CCOC(=O)c1cc(C)nc2c(O)cccc12`, the melting point turned out to be 71.8 °C.

For the molecule `CC(C)=C1c2ccccc2-c2ccccc21`, the melting point was in the range of 112 to 113 °C. `O=C(O)c1ccc(Cc2ccc(O)cc2)cn1` registered a melting point of 213 to 215 °C. `CCCCc1nn(-c2cc(N)ccc2Cl)c(=O)n1Cc1ccc(-c2ccccc2S(=O)(=O)NC(C)(C)C)cc1F` yielded a melting point of 167 to 170 °C. With `COCc1c(O)ccc2c1CCCC2=O` the figure was 142 to 143 °C. Regarding `O=C(O)CCC(O)c1ccc(-c2ccccc2Cl)cc1` (centres undefined), the melting point was in the range of 90 to 95 °C. With `Cc1cc(-c2nc3cc(OCCOC(C)C)cc(OCCOC(C)C)c3c(=O)[nH]2)cc(C)n1` the figure was 124 to 125 °C. With `Cc1nn(C)c2nc(N(CC3CC3)C(=O)C3CC3)c(CN(Cc3cc(C(F)(F)F)cc(C(F)(F)F)c3)c3nnn(C)n3)cc12` the figure was 120 to 122 °C; with `C1=C(/C=C/c2ccccc2)CCN(Cc2n[nH]c3ccccc23)C1`, 207 to 209 °C; with `CC1C2=CCC3C(CCC4(C)C(O)CCC34)C2(C)CCC1O` (centres undefined), 210 to 214 °C. With `Cc1cc(CO)ccc1NC(=O)N1CCN(c2ccc(NC(=O)Nc3ccccc3F)cc2)CC1` the figure was 229 to 230 °C. Molecule `O=c1[nH]c2ccccc2c(=O)n1S(=O)(=O)c1ccc(Cl)cc1` gave a melting point of 214 to 215 °C.

`O=C(O)c1cc(Cn2cc(C3c4ccccc4C=Cc4ccccc43)c(=S)[nH]c2=O)ccc1O` came in with a melting point of more than 240 °C. Under `O=C(NNc1ccc(NC(=S)Nc2ccccc2)cc1)c1ccc(Cl)cc1` stands 198 to 199 °C; under `COc1ccc2c(c1)C(CCCNC(C)=O)CCC2` (centres undefined), 71 to 73 °C; under `NCc1cccc(-c2ccc(Br)cc2)n1`, 71 to 75 °C.

Turning to `Cc1ccc2c(c1Cl)C(=O)N(C1(C#N)CCCCC1)C2=O`, the melting point lay in the range of 165 to 168 °C. As for `COc1cc2c(cc1OCc1ccccc1)CCN(C(C)=O)C2`, the melting point lay within 125 to 126 °C. With `Oc1ccc(-c2nc3cc(O)c(Br)cc3o2)cc1F` the figure was 224 to 226 °C; with `CC(C)(C(=O)O)n1c(=O)[nH]c2cc3ccccc3cc2c1=O`, 273 to 276 °C.

`Cn1cnc2c1c1n[nH]c(=O)n1c(=O)n2Cc1ccccc1` registered a melting point of 295 °C. The molecule `CN=C(N)Nc1nc(-c2cccc(C(=O)NCCN)c2)cs1` had a melting point of 214 to 216 °C.

In general, melting point refers to the temperature, or range, at which the solid turns liquid.
